Measurements: US12115147B2, “Formulations and methods related to eye irritation” (Lebrun Labs LLC, priority 2020, dated 2024)
Read-outs that look alike come from different tables or passages of the source. Values belong to the molecule of their own block, whether it stands above or below them.

Columns and labels:
[1] = OPTISAFE in vitro ocular irritation test, original formulation without antioxidants; conditions: for OPTISAFE (no antioxidant) Score AVG: ROS/CL chemicals; for OPTISAFE (no antioxidant) Score AVG / OPTISAFE Score AVG: triplicate assays; for OPTISAFE Score AVG: original formulation without antioxidants
Method: Surfactants were diluted.
Next a study was conducted to determine if the addition of antioxidants changes the reliability (repeatability) of the test method. After this, a large study determined if antioxidants specifically reduce the false positive rate without impacting the true positive rate and the true negative rate and then all prior test chemicals were rested with antioxidants in triplicate.

[2] = pH 6.36
[3] = tested on: reconstituted human corneal epithelium; experiment: Modified EPIOCULAR test with or without ascorbic acid overlay, MTT viability
[4] = no antioxidants, predicted GHS class, cited from earlier work
[5] = OS2 (OPTISAFE2), OPTISAFE formulation with antioxidants
[6] = Table 7B, consensus of past application domain study

SMILES: C=Cc1ccccc1 [Styrene]
OPTISAFE (no antioxidant) Score AVG [1]: 53.5 ± 10.1
OS2 (with antioxidant) Score AVG [2]: 3.5 ± 0.8
prediction, Condition 2 ([3]; ascorbic acid (0.3 mg/ml) in PBS overlay and culture medium): nonirritant (TN)
cell killing, Condition 2 ([3]; ascorbic acid (0.3 mg/ml) in PBS overlay and culture medium, MTT, visual): significantly less cell killing
cell killing, Condition 1 ([3]; no ascorbic acid added, 50 μL, 30 min exposure, MTT, visual): extensive cell killing

OS2 Score AVG [2]: 15.1 ± 0.4
SMILES: CCC(O)C(C)(C)C (stereo not drawn) [2,2-Dimethyl-3-pentanol]
OPTISAFE prediction without the antioxidant mixture [1]: overpredicted
OPTISAFE Score AVG [1]: 19.2 ± 1.2
OS Cons ([4]; Table 7A, consensus of past transferability study): 2

OS2 (with antioxidant) Score AVG [2]: 12.0 ± 0.3
SMILES: CCOCCOCCO [2-(2-Ethoxyethoxy)ethanol]
OPTISAFE (no antioxidant) Score AVG [1]: 21.7 ± 0.3
OS Cons [4, 6]: 2

SMILES: c1ccc(OP(Oc2ccccc2)Oc2ccccc2)cc1 [Triphenyl phosphite]
OPTISAFE Score AVG [1]: 113.3 ± 2.1
OS Cons [4, 6]: 1
OS2 Cons ([5]; Table 7B, majority prediction of the triplicate assays): 1
OS2 R1 ([5]; Table 7B, repeat 1, with antioxidants, predicted GHS class): 1
OS2 R3 ([5]; Table 7B, repeat 3, with antioxidants, predicted GHS class): 1
OS2 Score AVG ([5]; new formulation with antioxidants at the in vivo concentration, triplicate assays): 169.0 ± 9.9
